For orientation: IC50 means the concentration that gives 50% inhibition.

The record followed here is ChEMBL document CHEMBL3751710, “Cyclic RGD peptidomimetics containing 4- and 5-amino-cyclopropane pipecolic acid (CPA) templates as dual αVβ3 and α5β1 integrin ligands” (Bioorg Med Chem, 2016).

Test [1] has as its target Integrin alpha-V/beta-3 (Homo sapiens, UniProt P05106+P06756). As to the kind of experiment: Binding affinity to integrin alphav/beta3 heterodimer in human M21 cells assessed as inhibition of integrin-mediated human M21 cell adhesion to vitronectin incubated for 30 mins in presence of MnCl2. Format: cell-based.
Test [2] addresses Integrin alpha-5/beta-1 (Homo sapiens, UniProt P05556+P08648). As to the kind of experiment: Binding affinity to integrin alpha5/beta1 heterodimer in human K562 cells assessed as inhibition of integrin-mediated human K562 cell adhesion to fibronectin incubated for 30 mins in presence of MnCl2. Format: cell-based.

Chain of Integrin alpha-V/beta-3 (P05106 27-788 limits assumed): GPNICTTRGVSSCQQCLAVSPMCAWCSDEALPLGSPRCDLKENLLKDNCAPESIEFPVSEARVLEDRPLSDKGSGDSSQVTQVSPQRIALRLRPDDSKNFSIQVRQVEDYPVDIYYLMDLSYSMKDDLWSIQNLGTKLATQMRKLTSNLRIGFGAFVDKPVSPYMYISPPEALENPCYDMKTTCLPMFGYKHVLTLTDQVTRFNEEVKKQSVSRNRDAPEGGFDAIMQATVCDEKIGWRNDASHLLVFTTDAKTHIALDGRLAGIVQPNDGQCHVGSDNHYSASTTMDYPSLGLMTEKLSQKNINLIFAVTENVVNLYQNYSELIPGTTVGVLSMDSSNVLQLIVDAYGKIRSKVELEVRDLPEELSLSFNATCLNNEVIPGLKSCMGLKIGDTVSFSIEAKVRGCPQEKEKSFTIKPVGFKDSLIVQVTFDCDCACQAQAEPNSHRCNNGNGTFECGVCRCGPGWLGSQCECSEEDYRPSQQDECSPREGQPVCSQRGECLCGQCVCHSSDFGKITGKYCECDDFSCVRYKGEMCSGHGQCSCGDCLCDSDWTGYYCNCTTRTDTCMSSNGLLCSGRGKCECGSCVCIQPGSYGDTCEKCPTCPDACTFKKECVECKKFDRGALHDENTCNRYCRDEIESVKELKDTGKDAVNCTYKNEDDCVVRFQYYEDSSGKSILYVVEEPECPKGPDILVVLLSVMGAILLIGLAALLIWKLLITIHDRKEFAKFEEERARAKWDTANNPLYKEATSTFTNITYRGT
Chain of Integrin alpha-V/beta-3 (P06756 31-889 limits assumed): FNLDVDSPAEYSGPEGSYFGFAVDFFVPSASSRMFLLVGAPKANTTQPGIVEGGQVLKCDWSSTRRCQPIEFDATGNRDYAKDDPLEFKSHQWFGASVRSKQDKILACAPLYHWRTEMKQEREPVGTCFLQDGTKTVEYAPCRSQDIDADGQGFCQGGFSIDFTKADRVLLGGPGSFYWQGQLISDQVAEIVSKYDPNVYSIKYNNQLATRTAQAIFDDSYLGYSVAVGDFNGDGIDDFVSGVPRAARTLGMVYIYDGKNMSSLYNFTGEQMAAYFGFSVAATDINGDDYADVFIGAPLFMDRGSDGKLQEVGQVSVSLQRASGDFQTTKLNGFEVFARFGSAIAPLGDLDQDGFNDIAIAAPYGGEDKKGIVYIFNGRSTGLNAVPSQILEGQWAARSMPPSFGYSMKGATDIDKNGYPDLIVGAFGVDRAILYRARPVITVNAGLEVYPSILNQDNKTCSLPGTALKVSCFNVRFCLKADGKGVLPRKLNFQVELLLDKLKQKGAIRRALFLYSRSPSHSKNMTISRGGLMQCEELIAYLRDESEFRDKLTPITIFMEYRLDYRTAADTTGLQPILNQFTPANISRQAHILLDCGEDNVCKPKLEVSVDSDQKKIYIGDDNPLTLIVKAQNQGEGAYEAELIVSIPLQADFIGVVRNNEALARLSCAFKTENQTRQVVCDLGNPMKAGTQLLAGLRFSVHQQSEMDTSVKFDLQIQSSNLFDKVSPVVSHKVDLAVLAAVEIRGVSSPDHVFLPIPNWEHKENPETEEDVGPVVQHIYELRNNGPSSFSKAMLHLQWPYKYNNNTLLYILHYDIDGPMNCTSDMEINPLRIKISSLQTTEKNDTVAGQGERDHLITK
Chain of Integrin alpha-V/beta-3 (P06756 891-1048 limits assumed): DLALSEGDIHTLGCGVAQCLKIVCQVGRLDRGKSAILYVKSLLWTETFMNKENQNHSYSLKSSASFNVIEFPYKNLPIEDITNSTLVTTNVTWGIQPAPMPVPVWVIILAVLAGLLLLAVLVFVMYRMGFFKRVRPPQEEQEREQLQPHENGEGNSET
Chain of Integrin alpha-5/beta-1 (P05556 21-798 limits assumed): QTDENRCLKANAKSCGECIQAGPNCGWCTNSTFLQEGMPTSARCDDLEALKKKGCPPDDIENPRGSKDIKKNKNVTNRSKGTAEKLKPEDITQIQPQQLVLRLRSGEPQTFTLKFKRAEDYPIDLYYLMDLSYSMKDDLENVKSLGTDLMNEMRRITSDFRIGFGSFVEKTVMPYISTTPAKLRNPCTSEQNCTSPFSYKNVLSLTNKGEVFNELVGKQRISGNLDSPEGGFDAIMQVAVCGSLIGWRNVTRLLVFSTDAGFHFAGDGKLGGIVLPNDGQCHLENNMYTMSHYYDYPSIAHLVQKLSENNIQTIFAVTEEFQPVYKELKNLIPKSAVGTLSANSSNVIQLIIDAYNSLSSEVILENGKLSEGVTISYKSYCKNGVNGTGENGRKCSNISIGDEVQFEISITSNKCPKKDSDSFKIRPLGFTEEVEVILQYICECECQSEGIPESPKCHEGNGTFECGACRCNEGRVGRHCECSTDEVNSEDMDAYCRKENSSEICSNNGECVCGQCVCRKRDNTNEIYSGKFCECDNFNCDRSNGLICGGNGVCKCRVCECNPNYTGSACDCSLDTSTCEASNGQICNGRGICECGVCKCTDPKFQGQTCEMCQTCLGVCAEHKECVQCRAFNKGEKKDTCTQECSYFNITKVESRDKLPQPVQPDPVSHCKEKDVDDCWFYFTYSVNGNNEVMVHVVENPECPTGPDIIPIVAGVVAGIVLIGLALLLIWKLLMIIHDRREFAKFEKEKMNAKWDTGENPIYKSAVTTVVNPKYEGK
Chain of Integrin alpha-5/beta-1 (P08648 42-894 limits assumed): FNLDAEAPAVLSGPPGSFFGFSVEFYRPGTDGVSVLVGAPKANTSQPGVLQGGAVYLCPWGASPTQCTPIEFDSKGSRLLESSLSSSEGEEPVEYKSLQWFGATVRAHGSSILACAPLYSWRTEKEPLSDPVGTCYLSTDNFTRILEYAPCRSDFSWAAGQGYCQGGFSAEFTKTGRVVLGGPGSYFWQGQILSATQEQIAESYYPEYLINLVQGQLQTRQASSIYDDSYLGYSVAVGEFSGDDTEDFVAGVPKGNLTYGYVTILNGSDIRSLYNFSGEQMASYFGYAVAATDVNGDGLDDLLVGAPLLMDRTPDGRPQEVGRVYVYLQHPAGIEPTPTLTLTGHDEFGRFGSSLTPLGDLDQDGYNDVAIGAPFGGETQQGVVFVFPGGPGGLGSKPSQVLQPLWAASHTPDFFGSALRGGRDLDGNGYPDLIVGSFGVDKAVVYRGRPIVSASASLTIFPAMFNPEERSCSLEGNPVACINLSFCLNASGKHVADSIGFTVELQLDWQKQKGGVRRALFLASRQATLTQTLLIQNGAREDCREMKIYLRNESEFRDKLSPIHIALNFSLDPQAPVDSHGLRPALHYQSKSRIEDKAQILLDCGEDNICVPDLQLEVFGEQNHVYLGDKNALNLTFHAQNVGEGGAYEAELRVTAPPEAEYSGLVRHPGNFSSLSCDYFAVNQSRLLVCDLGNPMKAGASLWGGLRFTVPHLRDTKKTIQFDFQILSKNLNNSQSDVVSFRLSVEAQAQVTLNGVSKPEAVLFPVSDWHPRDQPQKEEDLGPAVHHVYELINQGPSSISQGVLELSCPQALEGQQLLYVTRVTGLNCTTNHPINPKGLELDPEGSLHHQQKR
Chain of Integrin alpha-5/beta-1 (P08648 895-1049 limits assumed): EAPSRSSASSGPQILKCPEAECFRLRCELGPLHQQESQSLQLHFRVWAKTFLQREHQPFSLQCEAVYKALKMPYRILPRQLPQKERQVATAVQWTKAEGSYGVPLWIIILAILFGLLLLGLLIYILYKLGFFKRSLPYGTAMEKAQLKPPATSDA

As to `COC(=O)N1CC[C@H]2NC(=O)[C@H](CC(=O)O)NC(=O)CNC(=O)[C@H](CCCNC(=N)N)NC(=O)[C@@]13C[C@@H]23`, the IC50 in test [1] came to 2.4 nM; in test [2], 26 nM.

As to `COC(=O)N1C[C@H]2C[C@H]3C[C@]31C(=O)N[C@@H](CCCNC(=N)N)C(=O)NCC(=O)N[C@@H](CC(=O)O)C(=O)N2`, the concentration for half-maximal inhibition (IC50) in test [1] was determined as 34 nM; in test [2] it was 15 nM.
